Reference: article PMC7466295, “An Absorption and Plasma Kinetics Study of Monoterpenes Present in Mastiha Oil in Humans” (Foods, 2020)

Key:
[1] = Postprandial plasma kinetics of monoterpenes after a single dose of Mastiha Oil (GC-MS-MS); format: in vivo, human; conditions: for Time of first detection in plasma: human plasma after 1 mL MO; for Area Under Curve: 1 mL MO oral single dose, linear trapezoidal method; for concentration at 24 h: 24 h after 1 mL MO; for Cmax / Tmax: healthy males, 1 mL MO oral single dose after overnight fasting; for concentration at 4 h: 4 h after 1 mL MO
Source text: An open label intervention trial was designed to assess the postprandial plasma levels of the main monoterpenes present in MO and their effect in antioxidant capacity. A kinetic approach was applied. Fifty apparently healthy male adults were screened. Ten volunteers were found eligible to the study according to specific criteria (Table 1). Eligible subjects were informed about the aims, methodology, expected effect and any risk from the Information Leaflet of the study, before signing an Informed Consent. The investigator explained that participation was voluntary and participants received a copy of the signed Informed Consent.
A Thermo Ultra GC-Thermo XLS Quantum GC-MS-MS Triple Quad with a DB-5 ms 30 × 0.25 × 0.25 capillary column (Merck KGaA, Darmstadt, Germany) was used. The sample was injected using a Programmed Temperature Vaporizing (PTV) injector that allows concentration of samples, using an automated sampler. Injection volume was 1 µL.
To be able to determine low ppb levels, a GC-MS-MS technique was performed. Signal to noise improves radically compared to traditional GC-MS methods. Full scan MS-MS was first employed in analytical standards which run individually to determine the parent and daughter ions and retention times were validated with the use of analytical standards which run individually.
Initial temperature was held at 50 °C for 2 min. Then temperature was ramped to 60 °C with a rate of 5 °C/min. The temperature reached 270 °C at a rate of 7 °C/min. Injector temperature was set at 250 °C. The splitless injected volume was 1 µL. At 1.2 min the splitless valve switched.
The MS-MS conditions were as follows: Parent Ion was m/z 93 and daughter ions were 91 and 77 for all compounds. Collision energy was set at 8 V and collision gas pressure was 1.5 mTorr. MS-MS scan time was set at 0.15 s. The peak width was maintained at 0.7 amu.
For sample preparation, a 1:1 mixture of ethyl-acetate:hexane was used and equal volumes of blood plasma and extractant were put in centrifuge tubes and vortexed for 20 min. The samples were then centrifuged and filtrated before injection.
To be able to determine low ppb levels, a GC-MS-MS technique was performed, which, compared to traditional GC-MS methods, improves signal to noise values and thus sensitivity in the identification of compounds. Full scan MS-MS was first employed in analytical standards which run individually to determine the parent and daughter ions of the three terpenes and their retention times. Identification of chromatographic peaks was accomplished by using the parent ion and most abundant daughter ion of each compound and comparing the retention times with those of reference standards. For quantification, blank plasma samples (collected prior to MO administration) were spiked with standard monoterpene solutions ([…]), and were treated identically to the samples, since the standard addition method used eliminates the matrix effect. The standard monoterpene solutions were prepared in ethyl acetate in the range 2–2000 μg/L by diluting stock solutions (1 mg/mL). In all preliminary tests the average recovery for the monoterpenes studied was >80% and the detection limit was 0.02 µg/L.
The maximum concentrations of monoterpenes (Cmax) and the time intervals (Tmax) were obtained from each participant’s plasma concentration–time curve. The area under the plasma concentration–time curve (AUC) was analysed using the Linear Trapezoidal method.

[2] = set-up: method as in PMID 29197300; conditions: rats, oral administration; cited from earlier work
[3] = male, oral, human plasma, mean ± SEM

Row | SMILES | Time of first detection in plasma [1] [h] | Area Under Curve ([1]; human plasma, mean ± SEM) [ng·h/mL] | concentration at 0.5 h ([1]; male, oral, human plasma, 0.5 h after 1 mL MO, mean ± SEM) [ng/mL] | concentration at 2 h ([1]; male, oral, human plasma, 2 h after 1 mL MO, mean ± SEM) [ng/mL] | concentration at 24 h [1, 3] [ng/mL] | Cmax ([1]; male, human plasma, mean ± SEM) [ng/mL] | Tmax ([1]; male, human plasma, mean ± SEM) [h] | concentration at 4 h [1, 3] [ng/mL] | Time at which bioavailable in plasma [2] [h] | Time of peak concentration in plasma [2] [h]
1 | C=CC(=C)CCC=C(C)C [Myrcene, myrcene] | 0.5 | 15318.0 ± 7313.3 | 775 ± 64 | 906 ± 44.6 | 648 ± 60.3 | 967 ± 89.7 | 2.2 ± 1.7 | – | – | –
2 | CC1=CCC2CC1C2(C)C (stereo not drawn) [α-Pinene, α-pinene] | 0.5 | 7865.2 ± 5547.3 | – | – | 80.6 ± 7.3 | 915 ± 551 | 3.8 ± 1.2 | 839 ± 189 | 0.17 | 2.5
3 | C=C1CCC2CC1C2(C)C (stereo not drawn) [β-Pinene, β-pinene] | 0.5 | 164.0 ± 110.8 | – | – | 2.1 ± 0.3 | 18 ± 10.7 | 3.6 ± 0.9 | 16.7 ± 3.5 | – | –
